Test results from patent publication US5800838A, “Composition that inhibits or destroys at least one unicellular living organism containing fluorine F- and Lithium li+” (priority 1987, dated 1998).
In brackets after ≈: the same amount, converted by molar mass. Like-named read-outs stand apart in the source and are kept apart here.

Legend:
[1] = tested on: Klebsiella pneumoniae
[2] = tested on: Haemophilus influenzae
[3] = tested on: Staphylococcus aureus; experiment: microbe, parasite or virus in culture; details: read-out: MIC alone (MIC A, MIC B)
Protocol: (§9) Concentration series of two antibiotic substances A and B are prepared in the geometric ratio of 2 are combined and the following values are determined:
(§10) MIC B/A = minimal inhibiting concentration B in presence of A [formula]
(§11) The MIC of the bacteriostatic effect is read when the percentage of surviving strains is less or equal to 1%.
(§12) The combination of the substances A and B is synergistic as regards the bacteriostatic effect when FIC≤0,75. The combination is additive when FIC=1. The combination is insensible when 1<FIC≤2. The combination is antagonistic when FIC>2.
(§13) Substance A was tetracycline (concentration serie from 0,25 to 128 mg/l)
(§14) Substance B was Fli (concentration serie from 0,25 to 16 mg/l)
(§15) The strain was staphylococcus aureus (wild-type hospital resistant strain)

[4] = tested on: Klebsiella pneumoniae; experiment: microbe, parasite or virus in culture
Protocol: The MIC of tetracycline was studied on Klebsiella pneumoniae (wild-type hospital strain).
The trial was conducted with tetracycline alone, tetracycline in presence of FNa and tetracycline in presence of Fli.

[5] = tested on: Staphylococcus aureus; details: A (tetracycline) in presence of B (Fli)
Protocol: as §9, §10, §11, §12, §13, §14, §15

[6] = tested on: Pseudomonas aeruginosa; experiment: MIC of doxycycline (Example 32); assay type: cell-based; details: alone, or with FNa 8 ppm / Fli 8 ppm
Source text: The MIC of doxycycline was studied on pseudomonas aeruginosa (wild-type hospital strain) in the same conditions as for example 31.

[7] = tested on: Escherichia coli ATCC 25922; experiment: Antibiotic activity of patient's blood after administration, inhibition holes methodology; assay type: in vivo
Source text: The efficiency in vivo of the administration of doxycycline in presence of Fli has been measured and compared with the efficiency of the administration of doxycycline alone.
The antibiotic composition (doxycycline alone or with Fli) has been administered to a healthy patient, and the antibiotic activity of the patient's blood has been determined before the first administration, the day of the administration, and three days later. The delay of three days is necessary because of the low solubility of Fli: the pertinent concentration of Fli is only obtained after the end of the second day after its administration.
The patient had taken the antibiotic during the three days, 2 capsules of 250 mg each day at 8 a.m. A blood sample was taken 3 hours after each administration.
And the antibiotic activity was twice determined by a microbiological titration using the inhibition holes methodology on a standard strain ATCC 25922 of Escherichia coli.
Holes of […] diameter were made on a Mueller Hinton agar and 100 μl of plasma were injected in each hole. The agar was then seeded with an inoculum of Escherichia coli of […].
After an incubation of 24 hours at 37° C., the diameters around each holes (in which the strain was killed) were read.
In the first trial, the capsules of 250 mg were constituted of 110 mg of doxycycline chlorhydrate and of lactose.
The second trial was conducted similarly with gelules of 250 mg constituted of 110 mg of doxycycline, 53 mg of Fli and lactose.

[8] = tested on: spermatozoa; details: alone; cited from earlier work
[9] = tested on: Pseudomonas aeruginosa; experiment: "chess" test, dilution in liquid medium, Trial 4; assay type: cell-based
Source text: (§1) Substance A was gentamicine
The strain was pseudomonas aeruginosa (wild-type hospital resistant strain)

[10] = tested on: serratia marcescens; experiment: "Time killing curve", optical density at 600 nm; assay type: cell-based; details: Fli 32 ppm
Protocol: (§2) The kinetics of the bacterial growth of serratia marcescens and salmonella spirochete has been studied with the "Time killing curve" methodology, for gentamicine (64 ppm) alone, Fli (32 ppm) and gentamicine (64 ppm) in presence of Fli (32 ppm). The bacterial growth is determined by spectrophotometric reading of the optical density for a wavelength of 600 nm.
(§3) The following table illustrates the optical density (1/100) obtained: […]

[11] = tested on: salmonella spirochete; experiment: "Time killing curve", optical density at 600 nm; assay type: cell-based; details: Fli 32 ppm
Protocol: as §2, §3

[12] = tested on: Klebsiella pneumoniae; experiment: "chess" test, dilution in liquid medium, Trial 3; assay type: cell-based
Source text: as §1
The strain was Klebsiella pneumoniae (wild-type hospital strain)

[13] = tested on: pseudomonas aeruginosa and Escherichia coli; assay type: cell-based
Source text: It is known that a strain develops a resistance against an antibiotic substance with which it is left in contact, by a phenotypical mutation procedure.
This phenomena has been studied on pseudomonas aeruginosa and Escherichia coli (wild-type hospital strains) which commonly develop resistance against aminosides. The antibiotic substance choosen was thus gentamicine which is an aminoside antibiotic.
And the growth of the resistance was studied with gentamicine alone, then with gentamicine in presence of Fli.
The trial was conducted on 12 days, and the MIC of gentamicine alone and of gentamicine in presence of Fli (4 ppm) was determined each day on transportplates in liquid medium with a serie of dilution in Mueller/Hinton agar.
The MBC (Minimal Bactericide Concentration) was also determined from the solution after determination of the MIC seeded on agar adapted to the strain. The MBC is read for a percentage of survivors less than 0,20%.

[14] = tested on: Pseudomonas aeruginosa; experiment: MIC of gentamicine, inclined agar with concentration gradient; assay type: cell-based; details: in presence of Fli at 16; RESISTANT strains
Protocol: (§4) The strains used were wild-type hospital strains having a resistant phenotype as regards gentamicine: pseudomonas aeruginosa, proteus mirabilis, serratia marcescens.
(§5) The phenotype of the strains was determined by diffusion in gradient on selective agar. Then, each group of strains having the same phenotype (resistant or sensible) was seeded on inclined agar having a gradient of concentration of the composition.
(§6) This methodology is explained by SZYBALSKI and BRYSON in "Selection de mutants resistant aux antibiotiques", L'antibiogramme, Vigot, p. 259-260.
(§7) The results are shown in the following table illustrating the MIC of gentamicine (aminoglycoside antibiotic).
(§8) x/y means a concentration read between x ppm and y ppm.

[15] = tested on: serratia marcescens; experiment: as above; assay type: cell-based
Protocol: as §4, §5, §6, §7, §8

[16] = tested on: proteus mirabilis; experiment: "chess" test, dilution in liquid medium, Trial 2; assay type: cell-based
Source text: as §1
The strain was a very resistant proteus mirabilis (wild-type hospital)

[17] = read-out: 100% inhibitory concentration, alone
[18] = A (gentamicine) in presence of B (Fli)

CN(C)C1C(=O)C(C(N)=O)=C(O)C2(O)C(=O)C3=C(O)c4c(O)cccc4C(C)(O)C3CC12 (stereo not shown) [TETRACYCLINE, tetracycline]
MIC [1, 17]: 0.5 µg/mL (≈ 1.13 µM)
MIC ([1]; read-out: 100% inhibitory concentration, in the presence of LiF 2 ppm): 0.25 µg/mL
MIC [2, 17]: 4 to 8 µg/mL (≈ 9 to 18 µM)
MIC ([2]; read-out: 100% inhibitory concentration, in the presence of LiF 4 ppm): 2 to 4 µg/mL
MIC [3]: 32 µg/mL (≈ 72 µM)
MIC [4]: 512 µg/mL (≈ 1150 µM)
MIC A/B [5]: 4 µg/mL

C[C@H]1c2cccc(O)c2C(=O)C2=C(O)[C@]3(O)C(=O)C(C(N)=O)=C(O)[C@@H](N(C)C)[C@@H]3[C@@H](O)[C@@H]21 [DOXYCYCLINE, doxycycline]
MIC [6]: 1000 µg/mL
inhibition diameter ([7]; J0, day before the first administration, healthy patient, plasma): 7 mm
inhibition diameter ([7]; J1, day of the first administration, 2 capsules each day, blood 3 hours after administration): 8-9 mm
inhibition diameter ([7]; J3, third day of administration, 2 capsules each day, blood 3 hours after administration): 11-12 mm

F [F^- ions]
MIC (minimal inhibitory concentration) [8]: 5 ppm
MIC, equivalent in % [8]: 0.0005%

gentamicine
MIC A/B [9, 18]: 16 µg/mL
MIC alone (MIC A, MIC B) ([9]; alone, wild-type hospital resistant strain): 64 µg/mL
optical density (1/100) ([10]; 6 h 00, gentamicine 64 ppm): 5 1/100
optical density (1/100) ([10]; 24 h 00, gentamicine 64 ppm): 4 1/100
optical density (1/100) ([11]; 3 h 00, gentamicine 64 ppm): 8 1/100
optical density (1/100) ([11]; 6 h 00, gentamicine 64 ppm): 7 1/100
MIC A/B [12, 18]: 4 µg/mL
MIC alone (MIC A, MIC B) ([12]; alone, wild-type hospital strain): 16 µg/mL
day the resistance appears ([13]; gentamicine alone): the third or fourth day
day the resistance appears ([13]; gentamicine with Fli (4 ppm)): the fourth or sixth day
MIC [14]: 64 ppm or mg/l
MIC ([15]; in presence of Fli at 8, SENSIBLE strains): 8 ppm or mg/l
MIC ([15]; in presence of Fli at 16, RESISTANT strains): 32 ppm or mg/l
MIC A/B [16, 18]: 16 µg/mL
MIC alone (MIC A, MIC B) ([16]; alone, very resistant wild-type hospital strain): 64 µg/mL
